Reference: paper PMC3375280 (PLoS ONE, 2012)
Substitutions are numbered along the chain they refer to.

What was measured:
[1] = biological target: T1, AT1 C76A/S107C/C289A mutant receptor (Rattus norvegicus, UniProt P25095, C289A/C76A/S107C); experiment: competition binding, C76A/S107C/C289A mutant; conditions: for Kd ratio relative to WT (in parentheses): C76A/S107C/C289A / WT; for Kd: C76A/S107C/C289A, COS1 membranes, read-out: Binding affinity (Kd)
T1 construct: expressed in transfected cells; host or cells: COS1
T1 sequence (P25095 1-359 C76A/S107C/C289A): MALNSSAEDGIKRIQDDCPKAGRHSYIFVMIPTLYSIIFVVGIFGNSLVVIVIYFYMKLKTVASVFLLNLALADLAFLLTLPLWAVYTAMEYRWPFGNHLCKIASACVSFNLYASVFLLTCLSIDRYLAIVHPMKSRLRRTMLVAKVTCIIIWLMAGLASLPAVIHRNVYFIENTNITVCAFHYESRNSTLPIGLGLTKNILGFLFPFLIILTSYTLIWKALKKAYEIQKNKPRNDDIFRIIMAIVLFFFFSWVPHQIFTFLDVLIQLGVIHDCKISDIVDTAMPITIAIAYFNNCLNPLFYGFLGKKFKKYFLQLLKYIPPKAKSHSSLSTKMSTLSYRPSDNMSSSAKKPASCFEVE
Description: The Kd and Bmax values of receptor binding were determined by ^125I-[Sar^1, Ile^8] […] Membranes expressing the WT or mutant AT1 receptors were incubated with 100 pM ^125I-[Sar^1, Ile^8] […] The binding reaction was terminated by filtering the incubation mixture through Whatman GF/C glass filters, and the residues were extensively washed further with binding buffer. The bound ligand fraction was determined from the counts per minute (cpm) remaining on the membrane. Binding kinetics values were determined as previously described.

[2] = biological target: T2, AT1 C76A/V116C/C289A mutant receptor (Rattus norvegicus, UniProt P25095, C289A/C76A/V116C); experiment: substituted cysteine accessibility mapping (SCAM), C76A/V116C/C289A; format: binding; parameters: key: Less and More indicate that the AT1 receptor is less or more accessible to the ligand pocket, respectively; Less and More indicate that the AT1 receptor is less or more accessible to the ligand pocket, respectively; No change; conditions: 1 µM ARB, […] MTSEA+, COS1 membranes
T2 construct: expressed in transfected cells; host or cells: COS1 cells (membranes)
T2 sequence (P25095 1-359 C76A/V116C/C289A): T1 sequence (P25095 1-359 C76A/S107C/C289A) with C107S, V116C
Source text: (§1) As we reported previously, the percentage (%) inhibition of ^125I-[Sar^1, Ile^8] AngII binding by methanethiosulphonate ethyl-ammonium (MTSEA^+) reagent was approximately 30% on AT1 receptor, since Cys^76 in TM2 was accessible to water within the ligand pocket. In addition, mechanical stretching increased the accessibility of Cys^289 by inducing a change in the conformation of TM7 [22]. To differentiate between single and multiple movements of one or more native cysteines, we created TM3 residues that were substituted with cysteine one at a time from […] to Phe^117 using the C76A/C289A mutant genetic background and evaluated each triple mutant for MTSEA sensitivity.
(§2) Figure 3 Changes in cysteine accessibility in COS1 cells expressing C76A/C289A mutant receptors in which the transmenbrane 3 residues from Ala^106 to Phe^117, except for position 113, were successively replaced by cysteine. 1 µM of ARBs, n=4–9, *p<0.05 vs. no treatment. #p<0.05 vs. C76A/C289A.
The SCAM method has been used to probe relative changes in the conformation of constitutively active AT1 receptor [20]–[22] and other GPCRs, [30] by validating the presence of Cys residues within the ligand pocket. […]

[3] = biological target: T3, AT1 C76A/F117C/C289A mutant receptor (Rattus norvegicus, UniProt P25095, C289A/C76A/F117C); experiment: substituted cysteine accessibility mapping (SCAM), C76A/F117C/C289A; format: binding; parameters: key: Less and More indicate that the AT1 receptor is less or more accessible to the ligand pocket, respectively; Less and More indicate that the AT1 receptor is less or more accessible to the ligand pocket, respectively; No change; conditions: 1 µM ARB, […] MTSEA+, COS1 membranes
T3 construct: expressed in transfected cells; host or cells: COS1 cells (membranes)
T3 sequence (P25095 1-359 C76A/F117C/C289A): T1 sequence (P25095 1-359 C76A/S107C/C289A) with C107S, F117C
Source text: as §1, §2
The SCAM method has been used to probe relative changes in the conformation of constitutively active AT1 receptor [20]–[22] and other GPCRs, [30] by validating the presence of Cys residues within the ligand pocket. We used a highly reactive, sulfhydryl-specific reaction with methanethiosulfonyl ethyl-ammonium (MTSEA^+), which reacts a billion times faster with water-exposed and ionized Cys than with lipid-exposed and un-ionized Cys. In this reaction, a positively charged sulfonylmethylammonium group is added to a water-exposed Cys. Aliquots of cell membranes are incubated with or without ARBs for 20 min in phosphate buffer at room temperature. The membranes are then diluted with same buffer and centrifuged. After washout the cell membranes, the membranes are incubated with 2.5 mM MTSEA^+ at room temperature for 2 min in HEPES buffer (pH7.4). The Membranes are then diluted with same buffer to stop the reaction and centrifuged. One hundred µl aliquots were used to assay for ^125I-[Sar^1,Ile^8]Ang II binding. […]

| SMILES | Kd ratio relative to WT (in parentheses) [1] [fold] | Kd [1] [nM] | Cysteine accessibility at Val116 compared to ligand (-) [2] | Cysteine accessibility at Phe117 compared to ligand (-) [3] | Cysteine accessibility at Phe117 compared to ligand (-) ([3]; listed as olmesartan) |
| --- | --- | --- | --- | --- | --- |
| CCCc1nc(C(C)(C)O)c(C(N)=O)n1Cc1ccc(-c2ccccc2-c2nnn[nH]2)cc1 [R239470] | 2.3 | 1.8 ± 0.4 | No change | No change |  |
| CCCc1nc(C(C)(C)O)c(C(N)=O)n1Cc1ccc(-c2cc(Cc3ccc(O)cc3)ccc2-c2nnn[nH]2)cc1 [R794847] | 2.1 | 102 ± 19 |  |  |  |
| CCCc1nc(C(C)(C)O)c(C(=O)O)n1Cc1ccc(-c2ccccc2-c2nnn[nH]2)cc1 [Olmesartan, olmesartan, reference compound] | 2.7 | 6.2 ± 3.2 | No change | More | greater accessibility |
